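Step 1: Grow cells in 96-well plates. Step 2: Expose to compound for 48 hours at 5 concentrations. Step 3: Interpolate endpoints linearly; if unreached, use highest concentration. The concentration for 50% growth inhibition is given as GI50.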 Activity calls are given as the source filed them. Cut-off read from the data, not from the text of the source: active = GI50 up to about 1.1 µM and inactive = higher.
Legend:
Assay in all cases: NCI anticancer screen, dose series, 48 h
NCI-H460 = test system: NCI-H460
COLO 205 = test system: COLO 205
A498 = test system: A498
K562 = test system: K562
SK-MEL-28 = test system: SK-MEL-28
MDA-MB-435 = test system: MDA-MB-435
KM12 = test system: KM12
SN12C = test system: SN12C
BT-549 = test system: BT-549
UACC-62 = test system: UACC-62
PC-3 = test system: PC-3
OVCAR-3 = test system: OVCAR-3
NCI/ADR-RES = test system: NCI/ADR-RES
RPMI-8226 = test system: RPMI-8226
RXF 393 = test system: RXF 393
CAKI-1 = test system: CAKI-1
EKVX = test system: EKVX
NCI-H226 = test system: NCI-H226
SNB-19 = test system: SNB-19
786-0 = test system: 786-0
M14 = test system: M14
MCF7 = test system: MCF7
ACHN = test system: ACHN
SF-295 = test system: SF-295
IGROV-1 = test system: IGROV-1
MDA-MB-231 = test system: MDA-MB-231
MOLT-4 = test system: MOLT-4
HCT-116 = test system: HCT-116
NCI-H23 = test system: NCI-H23
MDA-N = test system: MDA-N
U-251 = test system: U-251
HCC 2998 = test system: HCC 2998
CCRF-CEM = test system: CCRF-CEM
SNB-75 = test system: SNB-75
SW-620 = test system: SW-620
SK-MEL-2 = test system: SK-MEL-2
UO-31 = test system: UO-31
SR = test system: SR
OVCAR-4 = test system: OVCAR-4
DU-145 = test system: DU-145
OVCAR-5 = test system: OVCAR-5
HOP-92 = test system: HOP-92
HOP-62 = test system: HOP-62
SF-539 = test system: SF-539
HCT-15 = test system: HCT-15
OVCAR-8 = test system: OVCAR-8
LOX IMVI = test system: LOX IMVI
UACC-257 = test system: UACC-257
T47D = test system: T47D
HT-29 = test system: HT-29
A549 = test system: A549
SK-MEL-5 = test system: SK-MEL-5
TK-10 = test system: TK-10
SF-268 = test system: SF-268
NCI-H522 = test system: NCI-H522
Malme-3M = test system: Malme-3M
SK-OV-3 = test system: SK-OV-3
HL-60 = test system: HL-60
Hs-578T = test system: Hs-578T

Compound: Cc1cn(C(C)OCCN2C(=O)c3ccccc3C2=O)c(=O)[nH]c1=O (stereo not drawn)
- GI50 (NCI-H460): > 100 µM (inactive)
- GI50 (COLO 205): > 100 µM (inactive)
- GI50 (A498): > 100 µM (inactive)
- GI50 (K562): > 100 µM (inactive)
- GI50 (SK-MEL-28): > 100 µM (inactive)
- GI50 (MDA-MB-435): > 100 µM (inactive)
- GI50 (KM12): > 100 µM (inactive)
- GI50 (SN12C): > 100 µM (inactive)
- GI50 (BT-549): > 100 µM (inactive)
- GI50 (UACC-62): > 100 µM (inactive)
- GI50 (PC-3): > 100 µM (inactive)
- GI50 (OVCAR-3): > 100 µM (inactive)
- GI50 (NCI/ADR-RES): > 100 µM (inactive)
- GI50 (RPMI-8226): > 100 µM (inactive)
- GI50 (RXF 393): > 100 µM (inactive)
- GI50 (CAKI-1): > 100 µM (inactive)
- GI50 (EKVX): > 100 µM (inactive)
- GI50 (NCI-H226): > 100 µM (inactive)
- GI50 (SNB-19): > 100 µM (inactive)
- GI50 (786-0): > 100 µM (inactive)
- GI50 (M14): > 100 µM (inactive)
- GI50 (MCF7): > 100 µM (inactive)
- GI50 (ACHN): > 100 µM (inactive)
- GI50 (SF-295): > 100 µM (inactive)
- GI50 (IGROV-1): > 100 µM (inactive)
- GI50 (MDA-MB-231): > 100 µM (inactive)
- GI50 (MOLT-4): > 100 µM (inactive)
- GI50 (HCT-116): > 100 µM (inactive)
- GI50 (NCI-H23): > 100 µM (inactive)
- GI50 (MDA-N): > 100 µM (inactive)
- GI50 (U-251): > 100 µM (inactive)
- GI50 (HCC 2998): > 100 µM (inactive)
- GI50 (CCRF-CEM): > 100 µM (inactive)
- GI50 (SNB-75): > 100 µM (inactive)
- GI50 (SW-620): > 100 µM (inactive)
- GI50 (SK-MEL-2): > 100 µM (inactive)
- GI50 (UO-31): > 100 µM (inactive)
- GI50 (SR): > 100 µM (inactive)
- GI50 (OVCAR-4): > 100 µM (inactive)
- GI50 (DU-145): > 100 µM (inactive)
- GI50 (OVCAR-5): > 100 µM (inactive)
- GI50 (HOP-92): > 100 µM (inactive)
- GI50 (HOP-62): > 100 µM (inactive)
- GI50 (SF-539): > 100 µM (inactive)
- GI50 (HCT-15): > 100 µM
- GI50 (OVCAR-8): > 100 µM (inactive)
- GI50 (LOX IMVI): > 100 µM (inactive)
- GI50 (UACC-257): > 100 µM (inactive)
- GI50 (T47D): > 100 µM (inactive)
- GI50 (HT-29): > 100 µM (inactive)
- GI50 (A549): > 100 µM (inactive)
- GI50 (SK-MEL-5): > 100 µM (inactive)

Compound: Oc1c(OCc2nnc(CCCCCCCCc3nnc(COc4ccc5ccccc5c4O)o3)o2)ccc2ccccc12
- GI50 (NCI-H460): > 100 µM (inactive)
- GI50 (COLO 205): > 100 µM (inactive)
- GI50 (A498): > 100 µM (inactive)
- GI50 (K562): 91.6 µM (inactive)
- GI50 (SK-MEL-28): > 100 µM (inactive)
- GI50 (MDA-MB-435): > 100 µM (inactive)
- GI50 (KM12): > 100 µM (inactive)
- GI50 (SN12C): 83.9 µM (inactive)
- GI50 (BT-549): > 100 µM (inactive)
- GI50 (UACC-62): > 100 µM (inactive)
- GI50 (PC-3): > 100 µM (inactive)
- GI50 (NCI/ADR-RES): 64 µM (inactive)
- GI50 (RPMI-8226): > 100 µM (inactive)
- GI50 (RXF 393): > 100 µM (inactive)
- GI50 (CAKI-1): 29.8 µM (inactive)
- GI50 (EKVX): > 100 µM (inactive)
- GI50 (NCI-H226): > 100 µM (inactive)
- GI50 (SNB-19): 39.9 µM (inactive)
- GI50 (786-0): 16.6 µM (inactive)
- GI50 (M14): > 100 µM (inactive)
- GI50 (MCF7): > 100 µM (inactive)
- GI50 (ACHN): > 100 µM (inactive)
- GI50 (SF-295): > 100 µM (inactive)
- GI50 (MDA-MB-231): 91.8 µM (inactive)
- GI50 (MOLT-4): 19.7 µM (inactive)
- GI50 (HCT-116): 0.47 µM (active)
- GI50 (NCI-H23): 61.2 µM (inactive)
- GI50 (MDA-N): > 100 µM (inactive)
- GI50 (U-251): 41.7 µM (inactive)
- GI50 (HCC 2998): > 100 µM (inactive)
- GI50 (SNB-75): 62.7 µM (inactive)
- GI50 (SW-620): > 100 µM (inactive)
- GI50 (SK-MEL-2): > 100 µM (inactive)
- GI50 (UO-31): 59.6 µM (inactive)
- GI50 (OVCAR-4): > 100 µM (inactive)
- GI50 (DU-145): > 100 µM (inactive)
- GI50 (OVCAR-5): > 100 µM (inactive)
- GI50 (TK-10): > 100 µM (inactive)
- GI50 (SF-268): 85.5 µM (inactive)
- GI50 (HOP-92): 43 µM (inactive)
- GI50 (NCI-H522): > 100 µM (inactive)
- GI50 (HCT-15): > 100 µM
- GI50 (Malme-3M): > 100 µM (inactive)
- GI50 (UACC-257): > 100 µM (inactive)
- GI50 (SK-OV-3): 44.5 µM (inactive)
- GI50 (HT-29): > 100 µM (inactive)
- GI50 (A549): 57.3 µM (inactive)
- GI50 (SK-MEL-5): > 100 µM (inactive)

Compound: COC(=O)[C@]12CCC(C)(C)C[C@H]1[C@H]1C(=O)C=C3[C@@]4(C)C=C(C#N)C(=O)C(C)(C)[C@@H]4CC[C@@]3(C)[C@]1(C)CC2 [BARDOXOLONE METHYL]
- GI50 (NCI-H460): 0.0205 µM (active)
- GI50 (COLO 205): 0.0199 µM (active)
- GI50 (A498): 0.046 µM (active)
- GI50 (K562): 0.0205 µM (active)
- GI50 (SK-MEL-28): 0.0759 µM (active)
- GI50 (MDA-MB-435): 0.0164 µM (active)
- GI50 (KM12): 0.0163 µM (active)
- GI50 (SN12C): 0.0237 µM (active)
- GI50 (BT-549): 0.0339 µM (active)
- GI50 (UACC-62): 0.0145 µM (active)
- GI50 (PC-3): 0.0165 µM (active)
- GI50 (OVCAR-3): 0.0103 µM (active)
- GI50 (NCI/ADR-RES): 0.0188 µM (active)
- GI50 (RPMI-8226): < 0.0104 µM (active)
- GI50 (RXF 393): 0.0247 µM (active)
- GI50 (CAKI-1): 0.0273 µM (active)
- GI50 (EKVX): 0.0395 µM (active)
- GI50 (NCI-H226): 0.0346 µM (active)
- GI50 (SNB-19): 0.0408 µM (active)
- GI50 (786-0): 0.0279 µM (active)
- GI50 (M14): 0.0171 µM (active)
- GI50 (MCF7): < 0.0107 µM (active)
- GI50 (ACHN): 0.0285 µM (active)
- GI50 (SF-295): 0.0289 µM (active)
- GI50 (IGROV-1): 0.0405 µM (active)
- GI50 (MDA-MB-231): 0.0301 µM (active)
- GI50 (MOLT-4): < 0.01 µM (active)
- GI50 (HCT-116): 0.0131 µM (active)
- GI50 (NCI-H23): 0.0156 µM (active)
- GI50 (U-251): 0.0232 µM (active)
- GI50 (HL-60): < 0.0138 µM (active)
- GI50 (HCC 2998): 0.0112 µM (active)
- GI50 (CCRF-CEM): < 0.01 µM (active)
- GI50 (SNB-75): 0.139 µM (active)
- GI50 (SW-620): 0.0219 µM (active)
- GI50 (SK-MEL-2): 0.027 µM (active)
- GI50 (UO-31): 0.0818 µM (active)
- GI50 (SR): 0.0245 µM (active)
- GI50 (OVCAR-4): 0.162 µM (active)
- GI50 (DU-145): 0.0239 µM (active)
- GI50 (OVCAR-5): 0.04 µM (active)
- GI50 (TK-10): 0.0269 µM (active)
- GI50 (Hs-578T): 0.0321 µM (active)
- GI50 (SF-268): 0.0238 µM (active)
- GI50 (HOP-92): 0.0769 µM (active)
- GI50 (NCI-H522): 0.0728 µM (active)
- GI50 (HOP-62): 0.0268 µM (active)
- GI50 (SF-539): 0.0419 µM (active)
- GI50 (HCT-15): 0.0178 µM
- GI50 (Malme-3M): 0.0667 µM (active)
- GI50 (OVCAR-8): 0.0199 µM (active)
- GI50 (LOX IMVI): 0.0129 µM (active)
- GI50 (UACC-257): 0.0455 µM (active)
- GI50 (T47D): 0.0288 µM (active)
- GI50 (SK-OV-3): 0.126 µM (active)
- GI50 (HT-29): 0.0552 µM (active)
- GI50 (A549): 0.0294 µM (active)
- GI50 (SK-MEL-5): 0.0286 µM (active)
